# From patent publication US5605929A, “Methods and compositions for inhibiting 5α-reductase activity” (priority 1995, dated 1997)
# Experiments:
# 5α-reductase [1] = details: cited from earlier work
# [2] = target: T1, 5α-Reductase of Rat Liver Microsomes (Rattus norvegicus, UniProt P24008); experiment: [3H]4-MA binding assay, rat liver microsomes (tea catechins); details: read-out: % Inhibition of [^3 H]4-MA binding
# T1 sequence (P24008 1-259): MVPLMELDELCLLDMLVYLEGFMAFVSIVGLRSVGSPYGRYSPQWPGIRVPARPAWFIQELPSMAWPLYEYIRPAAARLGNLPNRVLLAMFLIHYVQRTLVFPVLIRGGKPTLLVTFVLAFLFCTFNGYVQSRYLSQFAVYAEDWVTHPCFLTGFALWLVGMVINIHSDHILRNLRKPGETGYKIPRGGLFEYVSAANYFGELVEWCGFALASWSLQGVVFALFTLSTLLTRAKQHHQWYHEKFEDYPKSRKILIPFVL
# Method: Microsomes were prepared as described previously (Liang and Liao, 1992) from the liver of adult Sprague-Dawley female rats or Rat-1A cells expressing a specific type of human 5α-reductase. Each study was carried out in duplicate or triplicate which were usually within 10% of each other. Several studies were preformed to assure that the results shown are representative. The data presented was based on the rate of reaction.
# (§1) [^3 H]4-MA binding assay were described in detail previously (Liang and Liao, 1992; Liang et al., 1983). […] The reaction was started by the addition of 25 μl of microsomes (25 μg protein). After 30-60 min incubation at 0° C., the [^3 H]4-MA bound to microsomes was collected on a Whatman GF/F glass fiber, washed and radioactivity determined (Liang and Liao, 1992).
# 5α-reductase [3] = experiment: Catechin gallates in rat liver microsomes or cells expressing type 1 or type 2 5α-reductase; assay type: biochemical; details: 40 μM
# [4] = tested on: ventral prostate and preputial organ; details: 5 mg ip daily, 14 days
# Description: Male Sprague-Dawley rats, 60±5 g body weight, were used. Each group had 6 rats, and all were castrated.
# [5] = target: T2, human 5α-reductase isozyme type 1 (Homo sapiens, UniProt P18405); experiment: 4-[14C]testosterone reduction, human type 1 isozyme; assay type: biochemical
# T2 construct: expressed in transfected cells; host or cells: Rat-1A cells infected with pMV7 retrovirus; microsomes of these cells
# T2 sequence (P18405 1-259): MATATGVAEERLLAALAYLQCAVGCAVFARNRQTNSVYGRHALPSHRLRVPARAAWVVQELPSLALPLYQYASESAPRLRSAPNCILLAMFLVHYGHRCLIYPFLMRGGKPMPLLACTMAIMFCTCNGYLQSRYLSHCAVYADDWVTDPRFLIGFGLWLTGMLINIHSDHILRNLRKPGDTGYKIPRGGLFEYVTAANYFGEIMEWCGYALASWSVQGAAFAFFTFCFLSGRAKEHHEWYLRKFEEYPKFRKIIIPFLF
# Description: (§2) The cDNAs for the human type 1 and 2 5α-reductases were isolated from human prostate λZAP II™ cDNA libraries using the published sequence of the 5α-reductases, PCR™ and standard library screening techniques (Sambrook et al., 1989). The type 1 and 2 cDNAs correspond to nucleotides 31-870 and 28-829, respectively, of the published sequences for these 5α-reductases (Anderson and Russell, 1990; Anderson et al., 1991). The type 1 and 2 cDNAs were subcloned into the retroviral expression vector pMV7 (Kirschmeier et al., 1988) and high titer stocks of virus containing the type 1 and 2 cDNAs were generated using the packaging cells BOSC 23 293 (Kirschmeier et al., 1988). Rat.-1A cells (Pear et al., 1993) were infected with virus (Topp, 1981) and cells containing integrated retrovirus were selected for G418-SO4 resistance, (Brown and Scott, 1987).
# (§3) Microsomes were prepared as described previously (Liang and Liao, 1992) from the liver of adult Sprague-Dawley female rats or Rat-1A cells expressing a specific type of human 5α-reductase. […] The data presented was based on the rate of reaction.
# (§4) The reaction was started by the addition of 25 μl of microsomes (25 μg protein). The mixture was incubated at 37° for 30-60 min and stopped by addition of 0.5 ml of ethyl acetate and mixing for 1 min. The organic solvent extract was removed under vacuum.
# [6] = tested on: forehead sebum production; experiment: Forehead sebum production (L/R ratio), human male; assay type: in vivo
# Method: A volunteer was used to test and analyze sebum production from the forehead region. The forehead was washed thoroughly by soap twice and cleaned by 70% isopropyl alcohol twice. Sebum production was measured 30 to 60 minutes later by a sebum meter (Courage/Khazaka Electronic GmbH, Germany). The sebum meter tape probe (7 mm×8 mm) covered 56 mm^2 area in each measurement. Ten measurements were made within the 4 cm square area (16 cm^2) located at the middle of the left or right side forehead between the eyebrow and the hair line.
# The sebum meter detected the difference in the transparency of the tape before and after the tape was placed on the forehead for 30 seconds and expressed the difference in an arbitrary number (S-value) between 0 to 300 (or higher). S-values of sebum accumulated on the foreheads of men are usually 200 to 300.
# [7] = target: T2, human 5α-reductase isozyme type 1; experiment: [3H]4-MA binding, human type 1 isozyme expressed in Rat-1A cells; details: read-out: % Inhibition of [^3 H]4-MA binding
# Description: as §2, §3, §1
# [8] = target: T3, human 5α-reductase isozyme type 2 (Homo sapiens, UniProt P31213); experiment: [3H]4-MA binding, human type 2 isozyme expressed in Rat-1A cells; details: read-out: % Inhibition of [^3 H]4-MA binding
# T3 construct: expressed in transfected cells; host or cells: Rat-1A cells infected with pMV7 retrovirus; microsomes of these cells
# T3 sequence (P31213 1-254): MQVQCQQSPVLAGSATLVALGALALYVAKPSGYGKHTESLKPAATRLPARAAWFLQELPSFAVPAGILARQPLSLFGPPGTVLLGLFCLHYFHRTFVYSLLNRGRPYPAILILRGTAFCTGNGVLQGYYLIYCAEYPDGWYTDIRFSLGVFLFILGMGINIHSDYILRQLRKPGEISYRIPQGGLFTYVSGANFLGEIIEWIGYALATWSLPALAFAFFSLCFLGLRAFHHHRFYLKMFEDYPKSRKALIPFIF
# Description: as §2, §3, §1
# [9] = target: T3, human 5α-reductase isozyme type 2; experiment: 4-[14C]testosterone reduction, human type 2 isozyme; assay type: biochemical
# Description: as §2, §3, §4
# microsomal 5α-reductase = target: T4, microsomal 5α-reductase (Rattus norvegicus, UniProt P24008); experiment: Enzymatic assay of microsomal 5α-reductase (testosterone to 5α-DHT); assay type: biochemical; details: prostate or liver microsomes
# T4 construct: from the livers of adult Sprague-Dawley female rats; from tissue; host or cells: liver microsomes of adult female Sprague-Dawley rats
# T4 sequence (P24008 1-259): T1 sequence (P24008 1-259)
# Method: (§5) Microsomes were prepared at 4° C. from a buffered 0.32M-sucrose homogenate of human liver and from the livers of adult Sprague-Dawley female rats by differential centrifugation as described previously (Liang et al., 1990), and were used in the assay of 5α-reductase activity. In some experiments, microsomes were solubilized with 0.1% polyoxyethylene ether W-1 as described previously (Liang et al., 1990), except for the substitution of polyoxyethylene ether W-1 for Lubrol-WX.
# hamster flank organ = experiment: Flank organ, castrated immature male hamsters, topical treatment; assay type: in vivo, Syrian golden hamster; details: for p (significance of inhibition) / Pigmented macule Right (+T): Table 5, T 0.5 μg + fatty acid 1 mg; for Pigmented macule Right (+T) / Pigmented macule Left: 21 days; for Pigmented macule Right (+T): T alone 49.6 ± 8.3; for Pigmented macule Left: Table 5, fatty acid 1 mg without T; for inhibition of T-induced growth of pigmented macule: hamster, in vivo
# Method: One to two weeks after castration, the hair on the lower back of each animal was clipped with an electric hair clipper and then shaved weekly to expose the flank organs. The animals were divided into 5 animals/treatment group. A treatment solution (5 μl) was applied topically to the right flank organ once a day using a Pipetteman and a polypropylene disposable tip. Unless specified the left flank organ was not treated. The treatment solution contained either (a) ethanol alone (vehicle and control), (b) an androgen (T or 5α-DHT), (c) a fatty acid, or (d) a combination of an androgen and a fatty acid. The flank organ was wiped with an alcohol pad to remove residual compound before each treatment. […] The flank organs, both the treated and untreated sides, were evaluated with methods to be described below to determine the effect of these treatments of the growth of the pigmented macules and the sebaceous glands. The body weight of each animal was recorded before and after treatment.
# The data are presented as mean ± standard deviation. […]
# [10] = target: T1, 5α-Reductase of Rat Liver Microsomes
# Method: (§6) Briefly, the binding assay solution, in a final volume of 0.15 ml, contained microsomes (2-20 μg of protein), 0.08 μCi of [^3 H]4-MA, 0.1 mM-NADPH, 1 mM-dithiothreitol and 50 mM-potassium phosphate, pH 7.0, with or without the indicated amount of a lipid or an inhibitor preparation. Lipids were dissolved in ethanol and added in 1-5 μl volumes. Control tubes received the same amount of ethanol. After incubation at 0° C. for 1 h, the [^3 H]4-MA bound to microsomes was determined by collecting microsomes on a Whatman GF/1F glass fibre filter and washing with 10 ml of 20 mM-potassium phosphate, pH 7.0, containing 0.01% CHAPS to remove unbound [^3 H]4-MA.
# as §5
# [11] = target: T1, 5α-Reductase of Rat Liver Microsomes; experiment: biochemical
# Method: as §6, §5
# [12] = Table 10, 1 μM, read-out: % Inhibition of 5α-reduction
# [13] = Table 10, 3 μM, read-out: % Inhibition of 5α-reduction
# [14] = Table 10, 10 μM, read-out: % Inhibition of 5α-reduction
# [15] = Table 10, 30 μM, read-out: % Inhibition of 5α-reduction
# [16] = read-out: % Inhibition of [^3 H]4-MA binding, Table 1, 40 μM
# [17] = read-out: % Inhibition of [^3 H]4-MA binding, Table 1, 200 μM
# [18] = read-out: % Inhibition of [^3 H]4-MA binding, Table 2, 10 μM
# [19] = read-out: % Inhibition of [^3 H]4-MA binding, Table 2, 40 μM
# [20] = read-out: % Inhibition of [^3 H]4-MA binding, Table 2, 200 μM
smiles,measurement,setting,value
C[C@]12CC[C@H]3[C@@H](CCC4=CC(=O)CC[C@@]43C)[C@@H]1CC[C@@H]2C(=O)O [4-androstane-3-one-17β-carboxylic acid],5α-reductase inhibition,5α-reductase [1],shown to inhibit 5α-reductase
C[C@]12CC[C@H]3[C@@H](CCC4C(=[N+]=[N-])C(=O)CC[C@@]43C)[C@@H]1CC[C@@H]2CCCO (stereo partly drawn) [4-diazo-21-hydroxymethyl-pregnane-3-one],5α-reductase inhibition,5α-reductase [1],shown to inhibit 5α-reductase
"Oc1cc(O)c2c(c1)O[C@H](c1ccc(O)c(O)c1)[C@H](O)C2 [EC, (-)Epicatechin]",inhibition at 5 µM,"[2]; Table 8, 5 μM",< 10%
same,inhibition at 10 µM,"[2]; Table 8, 10 μM",< 10%
same,inhibition at 20 µM,"[2]; Table 8, 20 μM",< 10%
same,inhibition at 40 µM,"[2]; Table 8, 40 μM",< 10%
same,inhibition at 200 µM,"[2]; Table 8, 200 μM",< 10%
same,inhibition,5α-reductase [3],less than 25%
same,effect on body weight increase,[4],not EC or γ-LA
same,effect on ventral prostate and preputial organ weights,[4],not EC
same,inhibition at 1 µM,[5]; [12],< 10%
same,inhibition at 3 µM,[5]; [13],13%
same,inhibition at 10 µM,[5]; [14],< 10%
same,inhibition at 30 µM,[5]; [15],< 10%
same,activity on type 1 isozyme,[5]; enzymatic assay,not active
same,L/R sebum ratio at end of treatment,"[6]; 20 mg twice a day, 6 days",1.02±0.1
same,L/R sebum ratio recovered after treatment stopped,[6]; 10 days after stop,1.21±0.01
same,inhibition at 1 µM,"[7]; Table 9, 1 μM",< 10%
same,inhibition at 3 µM,"[7]; Table 9, 3 μM",13%
same,inhibition at 10 µM,"[7]; Table 9, 10 μM",< 10%
same,inhibition at 30 µM,"[7]; Table 9, 30 μM",< 10%
same,inhibition at 100 µM,"[7]; Table 9, 100 μM",18%
same,inhibition at 1 µM,"[8]; Table 9, 1 μM",< 10%
same,inhibition at 3 µM,"[8]; Table 9, 3 μM",< 10%
same,inhibition at 10 µM,"[8]; Table 9, 10 μM",< 10%
same,inhibition at 30 µM,"[8]; Table 9, 30 μM",< 10%
same,inhibition at 100 µM,"[8]; Table 9, 100 μM",< 10%
same,inhibition at 1 µM,[9]; [12],< 10%
same,inhibition at 3 µM,[9]; [13],< 10%
same,inhibition at 10 µM,[9]; [14],< 10%
same,inhibition at 30 µM,[9]; [15],< 10%
same,inhibition at 100 µM,"[9]; Table 10, 100 μM, read-out: % Inhibition of 5α-reduction",< 10%
same,activity on type 2 isozyme,"[9]; enzymatic assay, concentrations below 30 μM for ECG/EGCG",not active
CCCCCCCC/C=C/CCCCCCCC(=O)O [Elaidic acid],inhibition in the enzymatic assay,microsomal 5α-reductase,as potent as their cis isomers
same,p (significance of inhibition),hamster flank organ,N.S.
same,Pigmented macule Right (+T),hamster flank organ,47.0 ± 5.9 mm^2
same,Pigmented macule Left,hamster flank organ,4.9 ± 1.1 mm^2
same,inhibition of T-induced growth of pigmented macule,hamster flank organ,inactive
same,inhibitory activity in [^3 H]4-MA binding assay,[10],much less inhibitory than their cis isomers
same,inhibition at 10 µM,"[11]; read-out: % Inhibition of [^3 H]4-MA binding, Table 1, 10 μM",< 10%
same,inhibition at 40 µM,[11]; [16],< 10%
same,inhibition at 200 µM,[11]; [17],< 10%
same,inhibition at 10 µM,[11]; [18],< 10%
same,inhibition at 40 µM,[11]; [19],< 10%
same,inhibition at 200 µM,[11]; [20],< 10%
CCCCC/C=C/C/C=C/CCCCCCCC(=O)O [Linolelaidic acid],inhibition in the enzymatic assay,microsomal 5α-reductase,as potent as their cis isomers
same,p (significance of inhibition),hamster flank organ,N.S.
same,Pigmented macule Right (+T),hamster flank organ,46.6 ± 8.7 mm^2
same,Pigmented macule Left,hamster flank organ,4.1 ± 0.7 mm^2
same,inhibition of T-induced growth of pigmented macule,hamster flank organ,inactive
same,inhibitory activity in [^3 H]4-MA binding assay,[10],much less inhibitory than their cis isomers
same,inhibition at 40 µM,[11]; [16],< 10%
same,inhibition at 200 µM,[11]; [17],19 ± 5%
same,inhibition at 10 µM,[11]; [18],< 10%
same,inhibition at 40 µM,[11]; [19],< 10%
same,inhibition at 200 µM,[11]; [20],19%
Cc1c(O[C@@H](C)c2ccc(CC(C)C)cc2)ccc(C(=O)Nc2ccccc2OCCCC(=O)O)c1C [ONO-3805],5α-reductase inhibition,5α-reductase [1],5α-reductase inhibitory activity
